Patent US20110136791A1, “COMBINATION OF A NICOTINIC RECEPTOR PARTIAL AGONIST AND OF AN ACETYLCHOLINESTERASE INHIBITOR, PHARMACEUTICAL COMPOSITION CONTAINING SAME AND USE THEREOF IN THE TREATMENT OF COGNITIVE DISORDERS” (priority 2008, published 2011)

What was measured:
[1] = test system: CD1-strain mice injected ICV with Aβ25-35 peptide; test: Test of short-term visual episodic memory deficit induced by ICV injections of β-amyloid protein 25-35 in mice (object recognition); assay type: in vivo, mouse; conditions: Aβ25-35 mice; for Effect on short-term recall performance levels (in words): 0.1 mg/kg each, intraperitoneally; for Exploration time, familiar object (recalling session) / Exploration time, new object (recalling session) / Recognition index (new/(new + familiar)): intraperitoneally 60 min before each session, 1 hour forgetting period, each active 0.1 mg/kg (base equivalent); for Exploration time, familiar object (recalling session) / Exploration time, new object (recalling session): 5 min test
Procedure: 2. Test of short-term visual episodic memory deficit induced by intracerebroventricular (ICV) injections of β-amyloid protein 25-35 in mice
The Aβ25-35 peptide fragment contains the 11 amino acids necessary and sufficient for inducing neurological toxicity.
The Aβ25-35 amyloid peptide is dissolved in distilled water at a final concentration of 3 mg/ml. It is then incubated at 37° C. for 4 days in order to form aggregates of toxic peptide. The control animals receive the scrambled peptide, consisting of the same amino acids, but organized according to a random sequence.
The peptide is injected intracerebroventricularly into CD1-strain mice anaesthetized with isoflurane. A microsyringe fitted with a 28-gauge needle 3 mm long is used. The needle is inserted unilaterally, 1 mm to the right of the central line equidistant from each eye and at an equal distance between the axis of the eyes and the axis of the ears. 3 μl of the aggregated peptide are injected over a period of one minute. The mice are used for the behavioral tests between 6 and 14 days after the intracerebral injection.
1.) Accustomization phase: In this protocol, the mice are first subjected to a session of accustomization to the environmental context (light grey PVC chain of 52×52×40 cm, illumination at 6 Lux) for a period of 10 minutes. The time spent in active locomotion is measured using a timer. 2.) Learning phase: 24 hours later, two exactly identical objects (either metal triangles (5.5×3.3 cm), or a square red Lego brick (3.0×3.0×3.0 cm)) are placed in the experimental device. Each mouse is placed in the middle of the chamber, the nose against the wall opposite that where the objects/stimulus are located. The pairs of objects presented are alternated equitably in each of the groups of mice. The animals are left in the experimental chamber until they reach a time spent exploring the two objects equal to 10 seconds, out of a maximum period of 3 minutes. As soon as the 10 seconds of exploration are reached, the mouse is put back in its housing cage.
3.) Recalling session: The recalling session takes place after a forgetting period of 1 hour for all the groups. […] The mice are confronted with a pair of objects consisting of the object encountered during the learning phase and an unknown object. The mice are placed in the chamber in the same way as for the learning session.
This test lasts 5 minutes, during which the time spent exploring each of the 2 objects is measured.
For the learning and recalling sessions, the exploration of an object is counted if the animal orients its nose toward the object, inside a perimeter of 2 cm around said object, or if it touches it with its nose or its feet. If the rat moves around the object or sits on it, these behaviors are not considered to be exploratory.
(§1) The raw data are expressed in seconds.
The compounds to be tested are administered intraperitoneally, 60 minutes before each of the three sessions of the protocol.
Five experimental groups were formed, receiving, respectively:
During the recalling session, i.e. 1 hour after the learning session, the times spent exploring the two objects, expressed in seconds, are measured. • Similar exploration times with respect to the familiar object and to the new object reflect the fact that the familiar object has been forgotten, and therefore that there is complete abolition of the short-term recall performance levels. • Conversely, a longer exploration time for the new object compared with the familiar object reflects a good short-term memory recall performance level.

rats with no deficit = test: Test for spontaneous forgetting in rats with no deficit (object recognition test, visual episodic memory); assay type: in vivo; conditions: rat; for Exploration time, familiar object (recalling session) / Exploration time, new object (recalling session) / Recognition index (new/(new + familiar)): p.o. 60 min before each session, 24 h forgetting period, group 2: 0.1 mg/kg, group 3: rivastigmine 0.03 mg/kg, group 4: 0.01 + 0.03 mg/kg; for Exploration time, familiar object (recalling session) / Exploration time, new object (recalling session): 3 min test; for Discrimination between the familiar object and the new object during the recalling session (in words): p.o., inactive doses, 24 hours after the learning session
Procedure: 1. Test for Spontaneous Forgetting in Rats with No Deficit
1.) Accustomization phase: In this protocol, the animals are first subjected to a session of accustomization to the environmental context (a wooden chamber of 65×45×45 cm) for a period of 2 minutes. The time spent in active locomotion is measured using a timer. 2.) Learning phase: 24 hours later, two exactly identical objects (either metal triangles or pyramids made of Lego) are placed in the experimental device. Each rat is placed in the middle of the chamber, the nose against the wall opposite that where the objects/stimulus are located. The pairs of objects presented are alternated equitably in each of the groups of rats. The animals are left in the experimental chamber until they reach a period of exploration of the two objects equal to 20 seconds, out of a maximum period of 3 minutes. As soon as the 20 seconds of exploration are reached, the rat is put back in its housing cage. […] 3.) Recalling session: The recalling session takes place after a forgetting period of 24 h for all the groups. The rats are confronted with a pair of objects consisting of the object encountered during the learning phase and an unknown object. The rats are placed in the same way as for the learning session.
This test lasts 3 minutes, during which the time spent exploring each of the 2 objects is measured.
Conversely, if the animal has forgotten the familiar object, the times spent exploring the new object and the familiar object will be similar.
For the learning and recalling sessions, the exploring of an object is counted if the animal orients its nose toward the object, inside a perimeter of 2 centimeters around said object, or if it touches it with its nose or with its feet. If the rat moves around the object or sits on it, these behaviors are not considered to be exploratory.
as §1
The test compounds are administered orally 60 minutes (rat study) before each of the three sessions of the protocol.
Four experimental groups are formed, said groups receiving, respectively:
During the recalling session, 24 hours after the learning session, the times spent exploring the two objects, expressed in seconds, and the recognition index (time spent exploring the new object/total time spent exploring the new and familiar objects) are measured. • Similar exploration times with respect to the familiar object and to the new object reflect the fact that the familiar object has been forgotten, and therefore that there is a visual episodic memory deficit.
Conversely, a longer exploration time for the new object than for the familiar object reflects significant recollection of the familiar object and therefore an improvement in visual episodic memory. • A relatively low recognition index reflects the fact that the familiar object has been forgotten, and therefore that there is a visual episodic memory deficit.
Conversely, a high recognition index reflects significant recollection of the familiar object, and therefore an improvement in visual episodic memory.
The above doses are expressed in base equivalent.

Structure (SMILES) | Effect on short-term recall performance levels (in words) [1] | Exploration time, familiar object (recalling session) [1] | Exploration time, new object (recalling session) [1] | Recognition index (new/(new + familiar)) [1] | Exploration time, familiar object (recalling session) (rats with no deficit) | Exploration time, new object (recalling session) (rats with no deficit) | Recognition index (new/(new + familiar)) (rats with no deficit) | Discrimination between the familiar object and the new object during the recalling session (in words) (rats with no deficit)
O=C(O)/C=C/C(=O)O.O=C(Oc1ccc(Br)cc1)N1CCN2CCC1CC2 [4-bromophenyl 1,4-diazabicyclo[3.2.2]nonane-4-carboxylate (2E)-but-2-enedioate] | do not result in an improvement in performance levels | 4.30 ± 0.70 s | 6.30 ± 0.60 s | 0.60 ± 0.04 | 10.47 ± 0.84 s | 11.10 ± 1.44 s | 0.50 ± 0.04 | no significant discrimination between the familiar object and the new object
COc1cc2c(cc1OC)C(=O)C(CC1CCN(Cc3ccccc3)CC1)C2 (stereo not shown) [donepezil] | do not result in an improvement in performance levels | 4.60 ± 0.70 s | 5.00 ± 0.80 s | 0.52 ± 0.05 |  |  |  | 
CCN(C)C(=O)Oc1cccc([C@H](C)N(C)C)c1 [rivastigmine] |  |  |  |  | 10.10 ± 1.56 s | 9.42 ± 1.86 s | 0.48 ± 0.05 | no significant discrimination between the familiar object and the new object
